What all share (type): cell-based
The target of assay [1] is T1, human TLR8 (Homo sapiens, UniProt Q9NR97).
T1 construct: host or cells: HEK-Blue cells
T1 sequence (Q9NR97 27-1041): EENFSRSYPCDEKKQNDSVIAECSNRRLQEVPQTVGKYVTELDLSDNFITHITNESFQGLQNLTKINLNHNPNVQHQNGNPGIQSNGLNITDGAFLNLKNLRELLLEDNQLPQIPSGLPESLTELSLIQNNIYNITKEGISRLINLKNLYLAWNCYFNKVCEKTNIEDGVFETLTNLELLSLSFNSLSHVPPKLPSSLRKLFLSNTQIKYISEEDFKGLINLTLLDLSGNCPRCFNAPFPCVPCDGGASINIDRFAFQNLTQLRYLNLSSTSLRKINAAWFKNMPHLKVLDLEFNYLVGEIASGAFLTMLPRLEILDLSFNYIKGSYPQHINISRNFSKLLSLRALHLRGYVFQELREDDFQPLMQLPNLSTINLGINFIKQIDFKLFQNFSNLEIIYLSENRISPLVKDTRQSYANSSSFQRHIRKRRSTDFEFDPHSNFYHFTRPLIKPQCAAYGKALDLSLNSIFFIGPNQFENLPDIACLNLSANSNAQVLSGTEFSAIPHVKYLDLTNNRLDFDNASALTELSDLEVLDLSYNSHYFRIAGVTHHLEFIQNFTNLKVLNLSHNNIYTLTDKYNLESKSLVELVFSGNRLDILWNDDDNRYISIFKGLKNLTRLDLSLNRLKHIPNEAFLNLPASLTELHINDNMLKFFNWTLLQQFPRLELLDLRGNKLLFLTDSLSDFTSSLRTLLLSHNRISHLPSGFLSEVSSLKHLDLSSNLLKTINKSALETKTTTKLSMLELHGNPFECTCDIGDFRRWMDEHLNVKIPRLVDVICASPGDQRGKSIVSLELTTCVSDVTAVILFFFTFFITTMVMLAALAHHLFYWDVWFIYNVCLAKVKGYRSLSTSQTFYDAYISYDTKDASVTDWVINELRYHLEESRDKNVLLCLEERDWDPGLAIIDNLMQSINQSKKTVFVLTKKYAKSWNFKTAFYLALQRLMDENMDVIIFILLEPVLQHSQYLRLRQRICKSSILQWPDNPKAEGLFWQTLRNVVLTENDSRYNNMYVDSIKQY
Nature of the assay: TLR8 inhibition reporter assay (HEK-Blue cells, SEAP reporter, R848 stimulation). To be noted: HEK-Blue cells overexpressing human TLR8, SEAP reporter, R848 15.9 μM. The method in brief: (§1)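 Cells were pre-treated 30 min at room temperature with compound (final 0.05 nM–50 μM), then stimulated with gardiquimod 7.5 μM (TLR7), R848 15.9 μM (TLR8) or ODN2006 5 nM (TLR9). SEAP was read after 22 h at 37° C; percent inhibition scaled between agonist+DMSO and known-inhibitor wells.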
A general note: A reporter such as luciferase makes a cellular process visible.

Assay [2] concerns the target T2, human TLR7 (Homo sapiens, UniProt Q9NYK1).
T2 construct: host or cells: HEK-Blue cells
T2 sequence (Q9NYK1 27-1049): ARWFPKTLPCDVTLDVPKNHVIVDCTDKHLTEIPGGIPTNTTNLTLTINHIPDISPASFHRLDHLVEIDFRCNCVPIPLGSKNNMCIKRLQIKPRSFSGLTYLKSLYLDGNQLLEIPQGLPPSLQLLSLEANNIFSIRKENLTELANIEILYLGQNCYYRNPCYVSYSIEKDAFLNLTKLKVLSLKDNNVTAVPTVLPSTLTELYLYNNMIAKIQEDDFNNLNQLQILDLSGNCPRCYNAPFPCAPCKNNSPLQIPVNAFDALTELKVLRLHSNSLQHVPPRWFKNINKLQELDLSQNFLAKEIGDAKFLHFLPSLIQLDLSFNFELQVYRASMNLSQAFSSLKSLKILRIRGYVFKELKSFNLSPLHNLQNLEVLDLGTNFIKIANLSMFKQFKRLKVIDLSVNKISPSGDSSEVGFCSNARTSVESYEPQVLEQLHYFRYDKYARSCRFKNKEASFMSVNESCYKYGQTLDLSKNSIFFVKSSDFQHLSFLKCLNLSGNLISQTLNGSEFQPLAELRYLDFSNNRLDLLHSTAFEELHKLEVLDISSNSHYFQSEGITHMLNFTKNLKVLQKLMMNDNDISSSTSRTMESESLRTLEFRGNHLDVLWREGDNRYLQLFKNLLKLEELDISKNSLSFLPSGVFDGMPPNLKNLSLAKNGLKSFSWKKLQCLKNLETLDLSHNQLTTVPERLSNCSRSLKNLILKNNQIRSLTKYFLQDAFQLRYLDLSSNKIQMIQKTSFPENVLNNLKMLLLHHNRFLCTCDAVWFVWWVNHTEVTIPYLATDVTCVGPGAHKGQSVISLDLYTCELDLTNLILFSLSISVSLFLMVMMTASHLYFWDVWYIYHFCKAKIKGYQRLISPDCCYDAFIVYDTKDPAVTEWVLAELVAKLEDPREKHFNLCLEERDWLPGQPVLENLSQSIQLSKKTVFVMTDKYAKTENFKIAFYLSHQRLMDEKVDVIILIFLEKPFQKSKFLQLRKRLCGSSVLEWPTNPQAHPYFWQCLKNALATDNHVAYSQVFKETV
Nature of the assay: TLR7 inhibition reporter assay (HEK-Blue cells, SEAP reporter, gardiquimod stimulation). To be noted: HEK-Blue cells overexpressing human TLR7, SEAP reporter, gardiquimod 7.5 μM. The method in brief:
as §1

Assay [3] deals with T3, human TLR9 (Homo sapiens, UniProt Q9NR96).
T3 construct: host or cells: HEK-Blue cells
T3 sequence (Q9NR96 26-1032): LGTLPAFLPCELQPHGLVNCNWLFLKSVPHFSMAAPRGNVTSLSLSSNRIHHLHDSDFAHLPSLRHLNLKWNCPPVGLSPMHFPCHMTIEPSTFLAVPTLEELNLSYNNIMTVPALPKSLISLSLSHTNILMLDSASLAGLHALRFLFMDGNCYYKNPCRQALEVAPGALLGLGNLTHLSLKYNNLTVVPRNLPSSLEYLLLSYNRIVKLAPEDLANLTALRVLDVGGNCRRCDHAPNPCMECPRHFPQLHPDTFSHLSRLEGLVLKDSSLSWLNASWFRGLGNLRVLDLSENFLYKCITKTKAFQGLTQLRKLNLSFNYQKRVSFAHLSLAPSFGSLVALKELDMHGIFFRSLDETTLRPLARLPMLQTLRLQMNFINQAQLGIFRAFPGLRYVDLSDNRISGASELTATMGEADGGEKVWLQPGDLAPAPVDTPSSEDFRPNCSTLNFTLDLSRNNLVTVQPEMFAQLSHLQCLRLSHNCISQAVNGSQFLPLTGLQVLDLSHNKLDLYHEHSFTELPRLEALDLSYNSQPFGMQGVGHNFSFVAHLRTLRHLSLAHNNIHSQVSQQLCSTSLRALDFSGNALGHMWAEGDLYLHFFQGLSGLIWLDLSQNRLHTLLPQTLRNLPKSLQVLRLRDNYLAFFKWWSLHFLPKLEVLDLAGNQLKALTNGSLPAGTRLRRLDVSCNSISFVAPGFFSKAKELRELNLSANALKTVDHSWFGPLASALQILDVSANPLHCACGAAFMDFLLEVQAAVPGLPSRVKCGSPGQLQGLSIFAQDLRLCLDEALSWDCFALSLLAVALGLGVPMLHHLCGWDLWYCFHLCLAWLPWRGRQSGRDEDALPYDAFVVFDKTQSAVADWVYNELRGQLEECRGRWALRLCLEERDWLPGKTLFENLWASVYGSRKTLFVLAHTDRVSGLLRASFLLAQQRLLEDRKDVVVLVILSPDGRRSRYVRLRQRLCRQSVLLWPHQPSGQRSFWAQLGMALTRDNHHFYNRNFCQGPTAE
Nature of the assay: TLR9 inhibition reporter assay (HEK-Blue cells, SEAP reporter, ODN2006 stimulation). As to conditions: HEK-Blue cells overexpressing human TLR9, SEAP reporter, ODN2006 5 nM. The method in brief:
as §1

Broadly, the IC50 is the midpoint of a concentration-inhibition curve.

For `Cc1cc(-c2[nH]nc(-c3nc4c(s3)CN(C3CCN(C(C)C)CC3)CC4)c2C(C)C)cn2ncnc12` [Example 254], the IC50 in assay [1] is 22.7 nM; in assay [2], 26.8 nM; in assay [3] it was 29200 nM.
Take `Cc1cc(-c2[nH]nc(-c3nc4c(s3)CN(CC(C)C)CC4)c2C(C)C)cn2ncnc12` [Example 255]: the IC50 in assay [1] was found to be 4.88 nM; in assay [2] it was 6.86 nM; in assay [3], 15100 nM.
In the case of `Cc1cc(-c2[nH]nc(-c3nc4c(s3)CN(C)CC4)c2C(C)C)cn2ncnc12` [Example 256], the results for the IC50 in assay [1], in assay [2] and in assay [3] were 31.3 nM, 34.3 nM and 16900 nM, respectively.
Consider `CCNc1ccc2nc(-c3n[nH]c(-c4cc(C)c5ncnn5c4)c3C(C)C)sc2c1` [Example 257], for which the IC50 in assay [1] was 0.86 nM; in assay [2], 13.6 nM; in assay [3], 34900 nM.
With `Cc1cc(-c2[nH]nc(-c3nc4ccc(NC(C)C)cc4s3)c2C(C)C)cn2ncnc12` [Example 258], the IC50 in assay [1] is 9.16 nM; in assay [2], 36.5 nM; in assay [3], 29400 nM.
On to `COc1cc(-c2[nH]nc(-c3nc4c(s3)CN(C(C)C)CC4)c2C(C)C)cn2ncnc12` [Example 259], for which the IC50 in assay [1] is 13.8 nM; in assay [2] it was 23.5 nM; in assay [3] it was > 50000 nM.
For the compound `CCCN1CCc2nc(-c3n[nH]c(-c4cc(OC)c5ncnn5c4)c3C(C)C)sc2C1` [Example 260], the IC50 is 138 nM in assay [1], 170 nM in assay [2] and > 50000 nM in assay [3].
For `CCN1CCc2nc(-c3n[nH]c(-c4cc(OC)c5ncnn5c4)c3C(C)C)sc2C1` [Example 261], the IC50 in assay [1] worked out at 2.26 nM; in assay [2], 8.43 nM; in assay [3], 17100 nM.
On to `COc1cc(-c2[nH]nc(-c3nc4c(s3)CN(C)CC4)c2C(C)C)cn2ncnc12` [Example 262], for which the IC50 in assay [1] stood at 17.5 nM; in assay [2], 23.8 nM; in assay [3], 18300 nM.
The corresponding values for `COCCN1CCc2cc(-c3n[nH]c(-c4cc(C)c5ncnn5c4)c3C(C)C)ccc2C1` [Example 263, 6-(4-isopropyl-5-(8-methyl-[1,2,4]triazolo[1,5-a]pyridin-6-yl)-1H-pyrazol-3-yl)-2-(2-methoxyethyl)-1,2,3,4-tetrahydroisoquinoline] are 4.48 nM, 4.74 nM and 18100 nM.
`Cc1cc(-c2[nH]nc(-c3ccc4c(c3)CCN(CC(C)(C)O)C4)c2C(C)C)cn2ncnc12` [Example 264]: the IC50 in assay [1] was 22.9 nM; in assay [2], 26.8 nM; in assay [3], 22000 nM.
The corresponding values for `Cc1cc(-c2[nH]nc(-c3nc4c(s3)CN(CC(C)(C)O)CC4)c2C(C)C)cn2ncnc12` [Example 265] are 3.29 nM, 14 nM and 47700 nM.
As for `COCCN1CCc2nc(-c3n[nH]c(-c4cc(C)c5ncnn5c4)c3C(C)C)sc2C1` [Example 266], the IC50 in assay [1] was 60.2 nM; in assay [2], 119 nM; in assay [3] it was > 50000 nM.
`COCCNc1ccc2nc(-c3n[nH]c(-c4cc(C)c5ncnn5c4)c3C(C)C)sc2c1` [Example 267]: the IC50 in assay [1] is 7.16 nM; in assay [2], 24.3 nM; in assay [3] it was > 50000 nM.
As to `Cc1cc(-c2[nH]nc(-c3ccc4c(c3)CCN(C(=O)CN(C)C)C4)c2C(C)C)cn2ncnc12` [Example 268, 2-(dimethylamino)-1-(6-(4-isopropyl-5-(8-methyl-[1,2,4]triazolo[1,5-a]pyridin-6-yl)-1H-pyrazol-3-yl)-3,4-dihydroisoquinolin-2(1H)-yl)ethan-1-one], the IC50 in assay [1] is 65.1 nM; in assay [2], 41.1 nM; in assay [3], > 50000 nM.
With `Cc1cc(-c2[nH]nc(-c3nc4c(s3)CN(C(=O)C[C@H](C)O)CC4)c2C(C)C)cn2ncnc12` [Example 269], the IC50 in assay [1] turned out to be 2.55 nM; in assay [2] it was 4.31 nM; in assay [3] it was 6280 nM.
Turning to `Cc1cc(-c2[nH]nc(-c3nc4c(s3)CN(C(=O)CN(C)C)CC4)c2C(C)C)cn2ncnc12` [Example 270], the IC50 in assay [1] amounted to 14 nM; in assay [2], 8.99 nM; in assay [3] it was 3460 nM.
Turning to `Cc1cc(-c2[nH]nc(-c3ccc4c(c3)CCN(CC(=O)N(C)C)C4)c2C(C)C)cn2ncnc12` [Example 271, 2-(6-(4-isopropyl-5-(8-methyl-[1,2,4]triazolo[1,5-a]pyridin-6-yl)-1H-pyrazol-3-yl)-3,4-dihydroisoquinolin-2(1H)-yl)-N,N-dimethylacetamide], the IC50 turned out to be 1.94 nM in assay [1], 0.96 nM in assay [2] and 4560 nM in assay [3].
As to `Cc1cc(-c2[nH]nc(-c3ccc4c(c3)CCN(CC(N)=O)C4)c2C(C)C)cn2ncnc12` [Example 272], the IC50 in assay [1] is 122 nM; in assay [2], 137 nM; in assay [3] it was > 50000 nM.

(Values after patent US20230117470A1, “SUBSTITUTED PYRAZOLE COMPOUNDS AS TOLL RECEPTOR INHIBITORS” (BRISTOL-MYERS SQUIBB COMPANY, priority 2019, published 2023).)
